The text below walks through data of patent publication US20110251188A1, “ACENAPHTHO HETEROCYCLE COMPOUNDS, CYCLODEXTRIN INCLUSION COMPOUNDS AND COMPLEXES, AND USES IN THE MANUFACTURES OF BH3 PROTEIN ANALOGUE, BCL-2 FAMILY PROTEIN INHIBITORS THEREOF” (DALIAN UNIVERSITY OF TECHNOLOGY, priority 2008, published 2011).

In general, solubility refers to the concentration that dissolves in the medium under given conditions.

For data set [1], the target named is T1, interaction between Bcl-2 and Bax (Homo sapiens, UniProt P10415).
T1 construct: expressed in transfected cells; host or cells: Hela cells
In words: intracellular fluorescence polarization energy transfer (FRET), Hela cells transfected with Bcl-2-CFP and Bax-YFP. It counts as cell-based. The conditions noted are these: for Time for which the compound interfered with the interaction between Bcl-2 and Bax: goes with the concentration of E11; for Concentration at which the compound interfered with the interaction between Bcl-2 and Bax: goes with the time of E12. As for the experimental part: 24 hours later (please refer to FIG. 2), the cells were washed with PBS for three times. The fluorescence value was detected by GENIOS fluorescence enzyme-labelled meter (TECAN, Swiss). In time-dependent experiment, the transfected cells were inoculated in a 6-well plate, after that, 40 μM of the compound was added thereinto. 3, 6 and 24 hours later (FIG. 3), the fluorescence intensities were detected by plate reader. As for the cell group in which only Bcl-2-CFP plasmid was transfected, the values at 475 nm emission wave length and 433 nm excitation wave length were recorded. As for the cell group in which only Bax-YFP plasmid was transfected, the values at 527 nm emission wave length and 505 nm excitation wave length were recorded. […] The ratio of fluorescence intensity at 527 nm and 475 nm emission wave lengths was FRET. The FRET for the control group in which the plasmid was solely transfected was set as 1.0. […] The cellular vitality was detected by MTT method.
Wherein the concentration and time meant that the detected compound interfered with the interaction between Bcl-2 and Bax at the concentration for the time period.
(In general: Fluorescence polarisation rises when a labelled molecule tumbles more slowly, as on binding a larger partner.)

The subject of data set [2] is Bcl-2. Nature of the data set: Western blotting, inhibition (downregulation) of Bcl-2 in tumor cells, Example 23. The class given is cell-based. The conditions noted are these: for inhibition against Bcl-2: Western blotting, tumor cells. As to the method:
(§1) The interest protein was detected by the corresponding antibody. The expression of the interest protein in the cells was detected by horseradish peroxidase-labeled secondary antibodies in combination with ECL coloration method. […] The concentration of the protein bands in the Western images were carried out semiquantitative analysis and normalization treatment with KODAK Gel Logic 1500 imaging system software.
(In western blotting, separated proteins are transferred to a membrane and probed.)

A further data set relates to Bax protein. Nature of the data set: co-localization between Bax protein and chondriosome, Bax-YFP transfected MCF-7 cells. The class given is cell-based. As to conditions: for Time for which the compound drove the BAX to shift towards the chondriosome: goes with the concentration of E14; for Concentration at which the compound drove the BAX to shift towards the chondriosome: goes with the time of E15. As for the experimental part:
5 ng of Bax-YFP plasmid was transfected into MCF-7 cells by using calcium phosphate coprecipitation method, 24 hours later, the cells were inoculated in a 6-well plate (0.2×10^6 cells/well), and 10 μM of the compound 3-thiomorpholinyl-8-oxo-8 H-acenaphtho[1,2-b]pyrrole-9-carbonitrile to be detected was added thereinto. 6 hours later, the cells were washed with PBS and hatched away from light with 50 nM Mito Tracker Red CMXRos (chondriosome specific probes; red) for 10 minutes. Then the cells were washed with PBS for three times, and the fluorescent image was scanned with Radiance2000 laser confocal microscopy (Bio-Rad, USA). Meanwhile, dual channel scanning was carried out, one channel was used to scan the green fluorescence of Bax-YFP, and the other channel was used to scan the red fluorescence of the CMXRos probe for indicating the chondriosome. […] When the Bax protein was localized on the chondriosome, the green and red fluorescence was superimposed into orange, as shown in FIG. 4.
Other 8 compounds were detected by the same experimental method as described above. […] Wherein the concentration and time meant that the detected compound simulated the BH3-only protein and driven the BAX to shift towards the chondriosome at the concentration for the time period.

A short description of data set [3]: phase solubility experiment (solubility in water before and after cyclodextrin inclusion or complexation). As to conditions: thermodynamic from solid, Solubility of compounds, Table 1, compound per se, before inclusion.
The test system of data set [4] is Mcl-1. In words: Western blotting, inhibition (downregulation) of Mcl-1 in tumor cells, Example 23. The conditions noted are these: for inhibition against Mcl-1: Western blotting, tumor cells. The class given is cell-based. As for the experimental part:
as §1

The next data set concerns MCF-7 cells. Nature of the data set: cytotoxicity depending on BAX/BAK, MTT, MCF-7 cells with or without BAX/BAK interfering plasmid. The class given is cell-based. As to the method: 3 ng of BAX/BAK interfering plasmid was transfected into MCF-7 cells by using calcium phosphate coprecipitation method, 24 hours later, the cells were collected. The expressions after the BAX and BAK proteins interfered with RNA was detected by Western, and the cell groups without plasmid transfection were treated similarly and were set as the control group. The transfected cells were inoculated in a 96-well plate (1×10^5 cells/well), the control experiment of the cell group without plasmid transfection was carried out in parallel. The compound 3-thiomorpholinyl-8-oxo-8 H-acenaphtho[1,2-b]pyrrole-9-carbonitrile to be detected was added thereinto according to the concentration gradient designed before the experiment. 48 hours later, the cellular vitality was detected by MTT. The experimental results were shown in FIG. 6, Gossypol as nonspecific BH3 analogue was treated in parallel.

Data set [5] deals with Mcl-1. In words: Western blotting, compounds compared with cyclodextrin inclusion compounds and complexes, Example 24. It counts as cell-based. As to conditions: Table 8; 10 μM or equivalent of inclusion compound, 24 hours. As for the experimental part: (§2) The cells were inoculated in a 6-well plate (2×10^5 cells/well). In the compound group, the compound 3-thiomorpholinyl-8-oxo-8H-acenaphtho[1,2-b]pyrrole-9-carbonitrile was dissolved into DMSO until the final concentration reached 10 μM. In the inclusion group, γ-cyclodextrin inclusion, which had been dissolved into water and was equivalent to 10 μM of the compound, was added thereinto. 24 hours later, the cells were washed with PBS for three times, then the cell sample was collected and cracked with 1×10^6/50 μl cell lysis solution (62.5 mM Tris-HCL pH 6.8; 2% SDS; 10% glycerol; 50 mM DTT; 0.01% bromphenol blue) at low temperature, then the solution was centrifuged and the protein supernatant was collected. The sample was boiled at 100° C. for 5 minutes and then was separated by electrophoresis on 12% SDS-PAGE and transferred. The interest protein was detected by the corresponding antibody. The expression of the interest protein in the cells was detected by horseradish peroxidase-labeled secondary antibodies in combination with ECL coloration method. […] The concentration of the protein bands in the Western figures were carried out semiquantitative analysis and normalization treatment with KODAK Gel Logic 1500 imaging system software.

Data set [6] has as its system Bcl-2. Described as above. It counts as cell-based. The conditions noted are these: Table 9; 10 μM or equivalent of inclusion compound, 24 hours. As to the method: as §2

Values after ≈ are worked out from the molar mass of the structure shown.

T1 sequence (P10415 whole entry): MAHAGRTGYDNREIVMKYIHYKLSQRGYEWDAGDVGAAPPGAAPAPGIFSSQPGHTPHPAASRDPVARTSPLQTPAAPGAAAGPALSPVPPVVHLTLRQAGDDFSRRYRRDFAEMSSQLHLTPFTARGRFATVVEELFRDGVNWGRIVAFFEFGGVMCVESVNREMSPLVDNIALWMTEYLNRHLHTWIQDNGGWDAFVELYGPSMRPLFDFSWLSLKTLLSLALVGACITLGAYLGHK

As for `N#CC1=C2C(=NC1=O)c1c(Sc3ccc(N)cc3)ccc3cccc2c13` [6-(4-aminophenylthio)-8-oxo-8H-acenaphtho[1,2-b]pyrrole-9-carbonitrile], the “Time for which the compound interfered with the interaction between Bcl-2 and Bax” value (“Time for which the compound interfered” below) in data set [1] was determined as 2 h. Moreover, the “Concentration at which the compound interfered with the interaction between Bcl-2 and Bax” value in data set [1] turned out to be 0.2 µM. The results for the “downregulation of Bcl-2 protein, semiquantitative analysis (band concentration, control = 1)” value (“downregulation of Bcl-2 protein” below) with Bcl-2 [2] (2 hours), in the data set on Bcl-2 [2] (6 hours) and in the data set with Bcl-2 [6] were 0.79, 0.49 and 0.74, respectively. Further, in the data set on Bcl-2 [2], the “inhibition against Bcl-2” value is “had the inhibition against Bcl-2 and Mcl-1 proteins”. Also, the “Time for which the compound drove the BAX to shift towards the chondriosome” value (shortened to “Time … to shift towards the chondriosome”) in the data set on Bax protein was 6 h. Also, in the data set on Bax protein, the “Concentration at which the compound drove the BAX to shift towards the chondriosome” value came to 5.0 µM. In data set [3], this molecule came in with a solubility of 0.28 µM (≈ 0.099 µg/mL). Moreover, the “downregulation of Mcl-1 protein, semiquantitative analysis (band concentration, control = 1)” value (“downregulation of Mcl-1 protein” below) in the data set on Mcl-1 [4] (6 hours) is on record as 0.99; in the data set on Mcl-1 [4] (12 hours), 0.99; in the data set with Mcl-1 [4] (18 hours), 0.55; in the data set with Mcl-1 [4] (24 hours), 0.27; in the data set on Mcl-1 [5] it was 0.70. Also, the “inhibition against Mcl-1” value in the data set on Mcl-1 [4] was “had the inhibition against Bcl-2 and Mcl-1 proteins”. In the data set with MCF-7 cells, the “dependence of cytotoxicity on BAX/BAK” value was “absolute dependence on BAX/BAK”.
`N#CC1=C2C(=NC1=O)c1c(Sc3ccc(Br)cc3)ccc3c(Sc4ccc(Br)cc4)ccc2c13` [3,6-di(4-bromophenylthio)-8-oxo-8H-acenaphtho[1,2-b]pyrrole-9-carbonitrile]: the “Time for which the compound interfered” value in data set [1] was found to be 2 h. In addition, in data set [1], the “Concentration at which the compound interfered with the interaction between Bcl-2 and Bax” value came to 1.0 µM. Moreover, the “downregulation of Bcl-2 protein” value in the data set on Bcl-2 [2] (2 hours) is recorded as 0.68; in the data set on Bcl-2 [2] (6 hours), 0.49; in the data set on Bcl-2 [6], 0.69. Besides, the “inhibition against Bcl-2” value with Bcl-2 [2] was “had the inhibition against Bcl-2 and Mcl-1 proteins”. Besides, the “Time … to shift towards the chondriosome” value with Bax protein is 6 h. In addition, in the data set with Bax protein, the “Concentration at which the compound drove the BAX to shift towards the chondriosome” value came out at 5.0 µM. This molecule also returned a solubility in data set [3] of 0.16 µM (≈ 0.0967 µg/mL). Further, the “downregulation of Mcl-1 protein” value turned out to be 0.99 in the data set on Mcl-1 [4] (6 hours); 0.99 with Mcl-1 [4] (12 hours); 0.70 in the data set with Mcl-1 [4] (18 hours); 0.57 in the data set on Mcl-1 [4] (24 hours); 0.69 in the data set on Mcl-1 [5]. The “inhibition against Mcl-1” value with Mcl-1 [4] is “had the inhibition against Bcl-2 and Mcl-1 proteins”. For the same molecule, in the data set with MCF-7 cells, the “dependence of cytotoxicity on BAX/BAK” value is recorded as “absolute dependence on BAX/BAK”.
Turning to `N#CC1=C2C(=NC1=O)c1cccc3c(Sc4ccc(Br)cc4)ccc2c13` [3-(4-bromophenylthio)-8-oxo-8H-acenaphtho[1,2-b]pyrrole-9-carbonitrile], the “Time for which the compound interfered” value in data set [1] is 2 h. The “Concentration at which the compound interfered with the interaction between Bcl-2 and Bax” value in data set [1] came to 0.5 µM. Also, the “downregulation of Bcl-2 protein” value in the data set on Bcl-2 [2] (2 hours) was 0.66; in the data set on Bcl-2 [2] (6 hours), 0.35; with Bcl-2 [6], 0.67. Also, in the data set with Bcl-2 [2], the “inhibition against Bcl-2” value was “had the inhibition against Bcl-2 and Mcl-1 proteins”. Also, the “Time … to shift towards the chondriosome” value in the data set with Bax protein stood at 6 h. Besides, the “Concentration at which the compound drove the BAX to shift towards the chondriosome” value in the data set with Bax protein came out at 1.0 µM. Moreover, the “downregulation of Mcl-1 protein” value is 0.99 in the data set with Mcl-1 [4] (6 hours); 0.99 with Mcl-1 [4] (12 hours); 0.64 in the data set with Mcl-1 [4] (18 hours); 0.31 in the data set with Mcl-1 [4] (24 hours); 0.69 in the data set with Mcl-1 [5]. Besides, in the data set on Mcl-1 [4], the “inhibition against Mcl-1” value is “had the inhibition against Bcl-2 and Mcl-1 proteins”. For the same molecule, the “dependence of cytotoxicity on BAX/BAK” value in the data set on MCF-7 cells was “absolute dependence on BAX/BAK”.
Consider `N#CC1=C2C(=NC1=O)c1cccc3cccc2c13` [8-oxo-8H-acenaphtho[1,2-b]pyrrole-9-carbonitrile], for which the “Time for which the compound interfered” value in data set [1] was found to be 2 h. For the same molecule, the “Concentration at which the compound interfered with the interaction between Bcl-2 and Bax” value in data set [1] was determined as 0.1 µM. For the same molecule, the “downregulation of Bcl-2 protein” value stood at 0.78 in the data set on Bcl-2 [2] (2 hours), 0.69 in the data set with Bcl-2 [2] (6 hours) and 0.69 in the data set with Bcl-2 [6]. Also, the “inhibition against Bcl-2” value with Bcl-2 [2] is “had the inhibition against Bcl-2 and Mcl-1 proteins”. Further, in the data set on Bax protein, the “Time … to shift towards the chondriosome” value is 3 h. In addition, the “Concentration at which the compound drove the BAX to shift towards the chondriosome” value in the data set on Bax protein was found to be 1.0 µM. The same molecule displayed a solubility in data set [3] of 0.12 µM (≈ 0.0276 µg/mL). Moreover, the “downregulation of Mcl-1 protein” value is reported as 0.99 in the data set on Mcl-1 [4] (6 hours); 0.99 in the data set with Mcl-1 [4] (12 hours); 0.48 in the data set with Mcl-1 [4] (18 hours); 0.21 in the data set on Mcl-1 [4] (24 hours); 0.77 in the data set with Mcl-1 [5]. The “inhibition against Mcl-1” value in the data set with Mcl-1 [4] is “had the inhibition against Bcl-2 and Mcl-1 proteins”. Also, the “dependence of cytotoxicity on BAX/BAK” value in the data set on MCF-7 cells was “absolute dependence on BAX/BAK”.
